According to the supplement of paper PMC10949913:
Where “and” joins values, the source holds several entries; their conditions need not be identical. Equal entries are not always repeated.

Assays:
Conditions in all cases: 48 h
[1] = test system: CU-ACC1; assay: AC50 viability; higher = less potent
Outline: (§1)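 Concentration-response curves were fitted to obtain AC50 and area under the curve, keeping inhibitory or non-responding curve classes only. Data came from CellTiter-Glo luminescence, normalised per plate to vehicle and empty-well controls, in three adrenocortical carcinoma cell lines. These were treated in 1,536-well plates with library compounds at 11 concentrations and read after 48 h.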

[2] = test system: CU-ACC2; assay: AC50 viability; higher = less potent
Outline: as §1

[3] = test system: NCI-H295R; assay: AC50 viability; higher = less potent
Outline: as §1

[4] = test system: CU-ACC1; assay: area under concentration-response curve (viability) (AUC (a.u.)); higher = less active
Outline: as §1

[5] = test system: CU-ACC2; assay: as above
Outline: as §1

[6] = test system: NCI-H295R; assay: as above
Outline: as §1

SMILES	AC50 viability [1]	AC50 viability [2] [µM]	AC50 viability [3] [µM]	area under concentration-response curve [4]	area under concentration-response curve [5]	area under concentration-response curve [6]
NCCCC[C@H](NC(=O)[C@@H](NC(=O)[C@H](Cc1c[nH]c2ccccc12)NC(=O)[C@H](CCCCN)NC(=O)[C@H](CCCCN)NC(=O)[C@H](Cc1c[nH]c2ccccc12)NC(=O)[C@H](Cc1c[nH]c2ccccc12)NC(=O)[C@H](CCCCN)NC(=O)[C@@H](N)CCCCN)C(c1ccccc1)c1ccccc1)C(N)=O	10.5 µM	3.72	9.34	301	301	310
CS[C@H]1SC[C@@H]2C(=O)N(C)[C@H](C(C)C)C(=O)OC[C@H](NC(=O)c3cnc4ccccc4n3)C(=O)N[C@H](C)C(=O)N(C)[C@H]1C(=O)N(C)[C@H](C(C)C)C(=O)OC[C@H](NC(=O)c1cnc3ccccc3n1)C(=O)N[C@H](C)C(=O)N2C	0.00934 µM	0.0209	0.0833	152	235	320
COc1cc2c(Oc3ccc4[nH]c(C)cc4c3F)ncnc2cc1OCCCN1CCCC1	20.9 µM	20.9	20.9	491	566	461
CC(C)(O)/C=C\C(=O)[C@](C)(O)[C@H]1[C@H](O)C[C@]2(C)[C@@H]3CC=C4[C@@H](C=C(O)C(=O)C4(C)C)[C@]3(C)C(=O)C[C@@]12C	0.372 µM	0.332	5.25	316	377	406
COc1ccc(C(=O)c2c(C)n(CCN3CCOCC3)c3ccccc23)cc1	10.5 µM	5.25	5.25	389	431	402
CNC(=O)c1ccccc1Sc1ccc2c(/C=C/c3ccccn3)n[nH]c2c1	37.2 µM	16.6	3.72	368	493	461
CN[S+](=O)([O-])c1ccc2c(c1)/C(=C/c1[nH]c3c(c1CCCN1CCN(C)CC1)CCCC3)C(=O)N2	23.5 µM	16.6	16.6	440	504	458
CN(C)c1ccc(C(=O)NCCCCCCC(=O)NO)cc1	4.68 µM	4.17	5.25	348	450	444
CC(C)C[C@H](NC(=O)CNC(=O)c1cc(Cl)ccc1Cl)B1OC(=O)CC(CC(=O)O)(C(=O)O)O1 (some centres undefined)	0.263 µM	0.332	0.372	302	380	413
COC1=CC=C(C(=C1)OC(C)C)C/2=N/[C@@H]([C@@H](N2C(=O)N3CCNC(=O)C3)C4=CC=C(Cl)C=C4)C5=CC=C(Cl)C=C5	11.8 µM	14.8	10.5	290	291	288
COC[C@H](NC(=O)c1cnc(C)s1)C(=O)N[C@@H](COC)C(=O)N[C@@H](Cc1ccccc1)C(=O)[C@@]1(C)CO1	0.166 µM	0.0833	0.0661	220	255	276
CCN(CC)CCNC(=O)c1c(C)[nH]c(/C=C2/C(=O)Nc3ccc(-c4csc(-c5ccccc5)n4)cc32)c1C	13.2 µM	9.34	7.42	369	521	453
c1cncc(CN2CCC(n3ncc4c(N5CCOCC5)nc(-c5ccc6[nH]ccc6c5)nc43)CC2)c1	20.9 µM	14.8	16.6	442	472	446
Nc1ccc(/C=C/C(=O)NCc2cc3cc(-c4ccc(C(=O)N5CCC(F)(F)CC5)cc4)cc(-c4ccc(F)cc4)c3o2)cn1	2.09 µM	2.35	3.32	340	447	458
C=CC(=O)Nc1cccc(Oc2nc(Nc3ccc(N4CCN(C)CC4)cc3)ncc2Cl)c1	8.33 µM	9.34	5.9	428	402	431
CNC(=O)c1cc(Oc2ccc(NC(=O)Nc3ccc(Cl)c(C(F)(F)F)c3)cc2)ccn1	18.6 µM	23.5	18.6	518	521	539
O=C(Nc1ncc(SCCN2CCCC2)s1)[C@]1(c2ccc([S+](=O)([O-])C3CC3)cc2)C[C@H]1C1CCCCC1	13.2 µM	26.3	10.5	442	507	437
CCNC(=O)c1cc2c(-c3cc(OCCN4CCCC4)c(Cl)cc3Cl)nc(N)nc2s1	5.12 µM	5.74	2.57	431	445	433
N/C(=N\C(=O)c1nc(Cl)c(N)nc1N)NCc1ccccc1	10.5 µM	8.33	11.8	322	370	396
CC(C)c1cc(C(=O)N2Cc3ccc(CN4CCN(C)CC4)cc3C2)c(O)cc1O	2.35 µM	0.833	3.72	371	445	445
COc1cc(N2CCN(C)CC2)ccc1Nc1nccc(-c2cn(C)c3cnccc23)n1	33.2 µM	18.6	20.9	451	507	464
Cc1ccc(C(=O)Nc2ccc(CN3CCN(C)CC3)c(C(F)(F)F)c2)cc1C#Cc1cnc2cccnn12	7.42 µM	9.34	7.42	402	524	487
O[C@H]1CC[C@@H](Oc2cccc3cnc(Nc4ccc5nc[nH]c5c4)nc23)CC1	1.66 µM	1.32	2.63	403	331	409
CO/C1=C/C(C)=C\[C@@H](C)[C@@H](O)[C@@H](C)C/C(C)=C\C=C/[C@H](OC)[C@@H]([C@@H](C)[C@@H](O)[C@H](C)[C@@]2(O)C[C@@H](O)[C@H](C)[C@@H](C(C)C)O2)OC1=O	0.0312 µM	0.0393	2.48	388	365	443
CNc1nccc(-c2cccnc2Oc2cc(C(=O)Nc3cccc(C(F)(F)F)c3)ccc2C)n1	14.8 µM	18.6	18.6	461	494	465

SMILES	AC50 viability [1]	AC50 viability [2] [µM]	AC50 viability [3] [µM]	area under concentration-response curve [4]	area under concentration-response curve [5]	area under concentration-response curve [6]
Cc1cc(-c2ccc(CC(=O)Nc3ccc(-c4cccnc4)cc3)cc2)ccn1	20.9 µM	23.5	16.6	435	460	440
Cc1cc(Nc2ncc3c(n2)N(C)C(=O)N(c2cc(NC(=O)c4cccc(C(F)(F)F)c4)ccc2C)C3)n(C)n1	11.8 µM	2.63	7.42	468	483	512
CCCCCCC(C)(C)C1=CC2=C([C@H]3CC(=C/CC3C(C)(C)O2)\CO)C(=C1)O (some centres undefined)	5.9 µM	5.9	4.17	442	497	458
COC1=CC2=NC=CC(=C2C=C1)OC3=CN=C(NC(=O)C/4=C(C)/N(CC(C)(C)O)N(C4=O)C5=CC=CC=C5)C=C3	23.5 µM	18.6	14.8	354	350	369
CN(C)C/C=C/C(=O)Nc1cc2c(Nc3ccc(F)c(Cl)c3)ncnc2cc1O[C@H]1CCOC1	4.68 µM	0.661	1.32	231	238	232
CCNCCc1ccc(CN(CC)c2cc(OC)ccc2[C@@H]2CCc3cc(O)ccc3C2)cc1	9.34 µM	7.42	7.42	447	515	440
CO[C@@H](C)Cn1c(=O)n(C)c2cnc3ccc(-c4cncc(C(C)(C)O)c4)cc3c21	0.742 µM	0.661	1.05	398	419	445
C=CC(=O)Nc1cccc(Nc2nc(Nc3ccc(N4CCN(C(C)=O)CC4)cc3OC)ncc2C(F)(F)F)c1	4.68 µM	3.72	5.25	335	394	362
OCCCNc1cc(-c2ccnc(Nc3cccc(Cl)c3)n2)ccn1	0.148 µM	0.0934	0.263	275	307	339
Cc1cnc(Nc2ccc(OCCN3CCCC3)cc2)nc1Nc1cccc([S+](=O)([O-])NC(C)(C)C)c1	16.6 µM	8.33	8.33	491	547	501
Cc1cc(I)ccc1Nc1c(C(=O)NOCC2CC2)cc(F)c(F)c1F	16.6 µM	18.6	8.33	445	554	490
C=CC(=O)N1CC[C@@H](Oc2nc(Nc3ccc(N4CCC(N5CCN(C)CC5)CC4)cc3)c(C(N)=O)nc2CC)C1	8.11 µM	8.11	8.11	521	559	529
NC1=C(Cl)C(=CC=N1)OC2=C(F)C=C(NC(=O)\C3=C\N\C=C(C3=O)\C4=CC=C(F)C=C4)C=C2	14.8 µM	16.6	13.2	437	502	490
O=C(c1ccc(F)c(F)c1Nc1ccc(I)cc1F)N1CC(O)([C@@H]2CCCCN2)C1	6.61 µM	3.32	10.5	308	299	371
CN(C)CCN(C)C(=O)c1ccc(NC(=O)Nc2ccc(-c3nc(N4CCOCC4)c4ccn(CC(F)(F)F)c4n3)cc2)cc1	4.68 µM	3.72	5.9	307	307	354
Cc1cccc(Nc2nc(-c3ccncc3)cs2)c1	20.9 µM	16.6	14.8	497	549	531
COc1cccc2c1C(=O)c1c(O)c3c(c(O)c1C2=O)C[C@@](O)(C(=O)CO)C[C@@H]3O[C@H]1C[C@H](N)[C@H](O[C@H]2CCCCO2)[C@H](C)O1	5.25 µM and 9.34 µM	6.61	20.9	230 and 410	168 and 501	435
CCc1cc(C(N)=O)ccc1-n1nc(C(C)C)c2c(-n3cnc(-c4cnn(C)c4)c3)ccnc21	13.2 µM	6.61	9.34	350	543	528
Cc1ncc(-c2ccnc(Nc3ccc([S+](C)(=O)[O-])cc3)n2)n1C(C)C	0.742 µM	0.332	2.95	286	236	307
CC(C)C1=N[N](C\2=C1C(=O)N\C(=N2)CC3=CC=C(OCCO)C=C3)C4=C(Cl)C=CC=C4Cl	0.0332 µM	0.0209	0.0833	241	183	289
COc1cc(OCc2cccc(-c3ccccc3)c2C)cc(OC)c1CN1CCCC[C@H]1C(=O)O	16.6 µM	20.9	18.6	444	546	514
CC(C)c1cc(CNc2nc(Nc3cc(C4CC4)[nH]n3)cc(N3CCN(C)CC3)n2)on1	8.33 µM	2.95	5.9	429	325	411
CN(C)C/C=C/C(=O)Nc1ccc(C(=O)N2CCC[C@@H](Nc3ncc(Cl)c(-c4c[nH]c5ccccc45)n3)C2)cc1	5.25 µM	2.63	14.8	399	358	489
CNC1CCC(N(Cc2cccc(-c3ccncc3)c2)C(=O)c2sc3ccccc3c2Cl)CC1 (centres undefined)	10.5 µM	7.42	9.34	406	448	425
